Measurements: PubChem BioAssay AID588633 (Johns Hopkins Ion Channel Center, 2011)
Active and inactive are the calls of the source.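 How the source made its calls: active means TRPV1 channel activation above 50%; inactive means activation of 50% or less.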

Molecular target: Transient receptor potential cation channel subfamily V member 1 (Homo sapiens) (UniProt Q8NER1)
Experiment: activation of human TRPV1 currents – automated patch clamp, HEK293 cells, confirmation (AID 588633)
Settings: TRPV1-HEK293, automated patch clamp current; at 10 µM; stronger effect = higher value

Transient receptor potential cation channel subfamily V member 1 (Homo sapiens), sequence (Q8NER1 whole entry, looked up): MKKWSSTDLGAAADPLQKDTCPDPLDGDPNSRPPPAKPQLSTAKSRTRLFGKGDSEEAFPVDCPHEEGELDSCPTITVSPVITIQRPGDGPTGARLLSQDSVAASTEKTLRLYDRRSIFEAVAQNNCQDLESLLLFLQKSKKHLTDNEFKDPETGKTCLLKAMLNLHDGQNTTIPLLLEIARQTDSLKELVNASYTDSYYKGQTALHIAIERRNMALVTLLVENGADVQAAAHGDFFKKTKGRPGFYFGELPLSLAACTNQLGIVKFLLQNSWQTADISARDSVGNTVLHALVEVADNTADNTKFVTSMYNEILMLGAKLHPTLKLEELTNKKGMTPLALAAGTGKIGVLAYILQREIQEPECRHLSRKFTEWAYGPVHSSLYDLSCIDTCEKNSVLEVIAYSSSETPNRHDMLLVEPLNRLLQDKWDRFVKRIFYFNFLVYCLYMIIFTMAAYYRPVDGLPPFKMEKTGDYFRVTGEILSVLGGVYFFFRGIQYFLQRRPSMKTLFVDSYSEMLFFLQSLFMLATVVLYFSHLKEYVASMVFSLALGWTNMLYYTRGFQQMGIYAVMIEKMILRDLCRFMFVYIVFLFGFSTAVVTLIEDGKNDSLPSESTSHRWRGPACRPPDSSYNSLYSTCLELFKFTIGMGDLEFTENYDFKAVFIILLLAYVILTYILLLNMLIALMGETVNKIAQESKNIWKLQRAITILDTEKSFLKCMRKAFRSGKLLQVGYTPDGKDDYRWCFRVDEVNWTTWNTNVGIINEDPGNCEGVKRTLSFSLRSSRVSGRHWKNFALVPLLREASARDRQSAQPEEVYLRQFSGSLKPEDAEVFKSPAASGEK

SMILES	activation
COc1ccc(NC2c3ccccc3C(=O)N2Cc2ccc3c(c2)OCO3)cc1 (centres undefined)	330%
Cc1ncsc1CCC(=O)N1CCCC(Nc2ccc(C(C)C)cc2)C1 (centres undefined)	335%
CCCCCCC1CCC(C(=O)N2CCOCC2)CC1 (centres undefined)	17.2% (inactive)
CCCCCC1CCC(C(=O)N2CCOCC2)CC1 (centres undefined)	57%
O=C(/C=C\c1cn(-c2ccccc2)nc1-c1cccs1)N1CCOCC1	272%
Cc1ccc(S(=O)(=O)Cc2ccc(C(=O)NCCc3ccccc3)o2)cc1	50.9%
COc1ccc(CNC(=S)NCc2ccc(Cl)cc2)cc1OC	272%
O=C(C1=C[C@@H](c2ccccc2)C[C@@H](OCc2ccc(CO)cc2)O1)N1CCCCCCC1	323%
Cc1ccc(Nc2ncnc3c2oc2ccccc23)cc1	200%
Cc1cnc(NC(=O)c2cc3c(s2)CCCC3)s1	32.4% (inactive)
O=C(COC(=O)C12CC3CC(CC(C3)C1)C2)Nc1ccc2[nH]c(=O)[nH]c2c1	34.9% (inactive)
CCOC(=O)[C@H]1[C@H]2COc3ccc(Cl)cc3[C@@H]2N2C(=O)c3ccc(C)cc3NC(=O)[C@@]12C	34% (inactive)
CC(OC(=O)CC1CCCCC1)C(=O)Nc1ccc(F)cc1 (centres undefined)	77.3%
NS(=O)(=O)c1ccc(NC(=O)c2ccc3c(c2)CCCC3)cc1	23.2% (inactive)
Cc1nc(Nc2cccc(F)c2)c2oc3ccccc3c2n1	58.3%
CCCCCCCCC(=O)NCc1ccc(O)c(OC)c1	43.2% (inactive)
CCc1nc(Nc2ccccc2)c2oc3ccccc3c2n1	128%
Cc1cc2oc(C(=O)Nc3cccnc3)c(C)c2cc1C	6.35% (inactive)
COc1ccc(C(=O)Nc2ccc(C3=NNC(=O)CC3C)cc2NC(=O)c2ccc(OC)cc2)cc1 (centres undefined)	51.6%
COc1ccc(Nc2ncnc3c2oc2ccccc23)cc1	48.6% (inactive)

SMILES	activation
Cc1ccc(/C=N/Nc2nc(N3CCCCC3)nc(N3CCCCC3)n2)o1	148%
CCC(C)Sc1cccc(-c2nc3ccc(Cl)cn3c2NCc2ccccc2)c1 (centres undefined)	10.9% (inactive)
O=C(Nc1ccc(N2CCCCCC2)cc1)c1cccc(S(=O)(=O)N2CCOCC2)c1	197%
O=C(/C=C\c1cn(-c2ccccc2)nc1-c1ccc2c(c1)OCCO2)N1CCOCC1	226%
CC(C)CCSc1nc(N2CCOCC2)c2c(c1C#N)CC(C)(C)OC2	93.7%
CCC(C)Sc1ccc(-c2nc3ccc(C)cn3c2NCc2ccccc2)cc1OC (centres undefined)	27.4% (inactive)
COC(=O)c1[nH]c2ccc(C)cc2c1NC(=O)CN1CCCC(C)(C)C1	61.2%
Cc1ccc(Cn2nc(C(=O)Nc3ccc(Br)cc3)cc2C)cc1	26.9% (inactive)
Cc1nc(Nc2cccc(Cl)c2)c2oc3ccccc3c2n1	34.8% (inactive)
Cc1ccc(N2CCN(C(=O)N3CCOCC3)CC2)c(C)c1	33.5% (inactive)
O=C(c1cc(-c2ccc(Cl)cc2Cl)on1)N1CCOCC1	334%
Cc1ccc(C2=NN(C)c3nc4ccccc4n3C2)cc1	105%
COc1cccc(/C=N/n2c(SC)nnc2-c2ccccc2)c1O	173%
Cc1cccn2c(=O)c3cc(C(=O)NCC4CCCO4)c(=N)n(Cc4ccc(F)cc4)c3nc12 (centres undefined)	229%
CCCn1c(SC(C)C(=O)N2CCOCC2)nc2ccc(Br)cc2c1=O (centres undefined)	253%
COCCNC(=O)CCc1c(C)nc2c(c(C)nn2-c2ccc(C)cc2)c1C	197%
Cc1cc(C(=O)N/N=C/c2cccc([N+](=O)[O-])c2)c(C)n1-c1ccccc1	76.2%
O=C(NCc1cccnc1)C1CCC(c2ccc(Cl)cc2)CC1 (centres undefined)	196%
CCOC(=O)c1sc(-c2ccccc2)cc1NC(=O)Nc1ccccc1	43.2% (inactive)
CC(=O)c1ccc(Nc2ncnc3c2oc2ccccc23)cc1	69.7%

SMILES	activation
O=C(NCc1ccccc1)[C@@H]1C[C@H]1[C@@H](NP(=O)(c1ccccc1)c1ccccc1)c1ccccc1	97.1%
CC(C)(C)OC(=O)CNC(=O)c1[nH]cnc1C(=O)N[C@@H](Cc1ccccc1)C(=O)OC(C)(C)C	28.7% (inactive)
O=C(CCc1ccccc1)N1CCCC(Nc2ccc(F)cc2)C1 (centres undefined)	585%
O=C(C1=NOC(CNc2ncc(C(F)(F)F)cc2Cl)C1)N1CCOCC1 (centres undefined)	157%
CC(C)c1ccc(NC2CCCN(C(=O)c3ccco3)C2)cc1 (centres undefined)	387%
CCc1nc(Nc2ccc3c(c2)OCCO3)c2oc3ccccc3c2n1	111%
CCCSc1ccc(-c2nn(-c3ccccc3)cc2/C=C(/C#N)C(=O)N2CCOCC2)cc1	23.7% (inactive)
COc1ccc(NC(=O)CCCSc2nc(-c3ccco3)cc(C(F)(F)F)n2)cc1OC	406%
O=C(Nc1ccccc1)c1cc(-c2ccccc2Cl)no1	40.5% (inactive)
Cc1ccc(NC(=O)c2cc3c(s2)CCCC3)cc1	402%
COc1ccc(Nc2nc(C)nc3c2oc2ccccc23)cc1	419%
Cc1cc(C(=O)NCCC2=CCCCC2)ccc1[N+](=O)[O-]	369%
CCC(C)Sc1cccc(-c2nc3cc(C)ccn3c2NCc2ccccc2)c1 (centres undefined)	63.1%
COc1ccc(Cn2nc(-c3ccccc3)c(N3CCCCC3)cc2=O)cc1	143%
Oc1ccccc1N=Cc1c(O)ccc2ccccc12	10.6% (inactive)
CC(=O)c1ccc(N2CCN(C(=O)Nc3ccc(Cl)cc3)CC2)cc1	6.07% (inactive)
Cc1ccc2nc(-c3ccccn3)cc(C(=O)Nc3ccc4c(c3)OCO4)c2c1	1.55% (inactive)
CC1CCCN(c2ccc(C(=O)Nc3cccnc3)cc2[N+](=O)[O-])C1 (centres undefined)	467%
CCc1ccc(/C=C2\SC(N3CCOCC3)=NC2=O)cc1	199%
Cc1ccc(Nc2nc(C)nc3c2oc2ccccc23)cc1	317%

Second part, the molecule after the results:

activation	SMILES
131%	CC(C)(C)c1ccc(/C=C/C(=O)Nc2cccnc2)cc1
12.5% (inactive)	CC1CCN(C(=O)/C=C/c2ccc(C(C)(C)C)cc2)CC1
57.6%	CC(C)c1ccc(NCCC(=O)c2cccs2)cc1
27.1% (inactive)	CCN(CC)S(=O)(=O)c1ccc(/C=C/C(=O)Nc2ccc(N3CCOCC3)cc2)cc1
242%	CC(C)c1ccc(/C=C/C(=O)N2CCOCC2)cc1
67%	O=C(Nc1cccnc1)c1ccc(-c2ccccc2)cc1
200%	Cc1cc2c(NC(=O)Nc3ccc(C(C)(C)C)cc3)cccc2nn1
5.79% (inactive)	CS(=O)(=O)N1CCc2cc(C(=O)Nc3ccc(Br)cc3)ccc21
378%	CC(C)(C)c1ccc(C(=O)Nc2ccc(S(N)(=O)=O)cc2)cc1
5.26% (inactive)	O=C(Nc1cccc([N+](=O)[O-])c1)c1ccc(-c2ccccc2)cc1
54.6%	Cc1ccc(C(=O)Nc2ccc(SC(F)F)cc2)s1
69.2%	CC(C)(C)c1ccc(/C=C/C(=O)Nc2ccncc2)cc1
145%	O=C(Nc1ccc(C(F)(F)F)cc1)c1ccc2ncsc2c1
427%	CCN(CCNC(=O)c1ccc(C#N)cc1)c1cccc(C)c1
316%	CC(=O)c1ccc(N2CCN(C(=O)Nc3ccc(C(C)C)cc3)CC2)cc1
39.6% (inactive)	CC(C)(C)c1ccc(OCCNC(=O)Cc2ccc(F)cc2)cc1
304%	CC(C)(C)c1ccc(OCCCC(=O)N2CCOCC2)cc1

activation	SMILES
338%	CCCOc1ccc(/C=C/C(=O)N2CCOCC2)cc1
135%	CC(C)c1ccc(NC(=O)N2CCC(c3nc4ccccc4o3)CC2)cc1
9.95% (inactive)	CC(C)(C)c1ccc(/C=N/OCC(=O)NCc2ccc(F)cc2)cc1
156%	CC(C)c1ccc(CNNC(=O)c2ccccc2)cc1
291%	CCN(c1ccc(NC(=O)c2ccc(Cl)nc2)cc1)C(C)C
199%	CC(C)(C)c1ccc(NC(=O)c2ccsc2)cc1
155%	CC(=O)c1ccc(NC(=O)N2CCN(c3ccc(C)cc3)C(C)C2)cc1 (centres undefined)
265%	CC(C)(C)c1cc(CCC(=O)NCc2ccncc2)cc(C(C)(C)C)c1O
440%	CCC(C)(C)c1ccc(OCC(=O)Nc2ccncc2)cc1
287%	CC(C)(C)c1ccc(NC(=O)N2CCCN(c3ccc([N+](=O)[O-])cn3)CC2)cc1
4.84% (inactive)	CCc1ccc2oc(C(=O)Nc3cccnc3)c(C)c2c1
28.7% (inactive)	CCc1ccc(NC(=O)Nc2ccc3c(c2)N(C)C(=O)CS3)cc1
3.59% (inactive)	CC(C)(C)c1ccc(C(=O)Nc2ccc3c(c2)C(=O)NC3=O)cc1
420%	CC(C)(C)c1ccc(/C=C/C(=O)N2CCCCC2)cc1
182%	CC(C)(C)c1ccc2c(c1)OC(C(=O)N/N=C\c1ccncc1)CO2 (centres undefined)
30% (inactive)	CC(=O)Nc1ccc(N=Cc2c(O)ccc3ccccc23)cc1
-2.6% (inactive)	O=C(NCCCc1ccccc1)c1ccc(F)cc1
